The source made the active and inactive calls.
Assays:
[1] = molecular target: T1, Exodeoxyribonuclease V (Escherichia coli (strain K12), UniProt P04993+P07648+P08394); assay: RecBCD inhibition via phage-restricted bacterial growth – absorbance, V66 E. coli, mutant T4 phage, counter-screen for AddAB inhibitor project, dose response (AID 492957); format: functional, cell-based, Escherichia coli str. K-12 substr. MG1655
T1 sequence (P04993 whole entry): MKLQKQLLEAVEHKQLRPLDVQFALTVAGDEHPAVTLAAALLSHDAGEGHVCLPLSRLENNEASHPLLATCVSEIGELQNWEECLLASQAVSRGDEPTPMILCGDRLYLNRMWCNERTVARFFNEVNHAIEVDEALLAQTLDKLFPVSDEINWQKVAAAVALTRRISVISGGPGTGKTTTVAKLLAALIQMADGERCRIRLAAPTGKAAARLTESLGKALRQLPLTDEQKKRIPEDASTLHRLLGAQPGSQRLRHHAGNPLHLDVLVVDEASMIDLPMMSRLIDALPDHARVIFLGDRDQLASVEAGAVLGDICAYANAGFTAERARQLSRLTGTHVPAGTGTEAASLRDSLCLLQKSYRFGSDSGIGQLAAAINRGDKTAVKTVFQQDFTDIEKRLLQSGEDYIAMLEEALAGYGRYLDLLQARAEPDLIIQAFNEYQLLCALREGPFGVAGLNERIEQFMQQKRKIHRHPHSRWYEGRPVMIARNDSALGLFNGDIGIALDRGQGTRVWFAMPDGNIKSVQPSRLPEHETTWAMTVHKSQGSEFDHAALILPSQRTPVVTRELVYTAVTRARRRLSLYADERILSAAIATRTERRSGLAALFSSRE
T1 sequence (P07648 whole entry): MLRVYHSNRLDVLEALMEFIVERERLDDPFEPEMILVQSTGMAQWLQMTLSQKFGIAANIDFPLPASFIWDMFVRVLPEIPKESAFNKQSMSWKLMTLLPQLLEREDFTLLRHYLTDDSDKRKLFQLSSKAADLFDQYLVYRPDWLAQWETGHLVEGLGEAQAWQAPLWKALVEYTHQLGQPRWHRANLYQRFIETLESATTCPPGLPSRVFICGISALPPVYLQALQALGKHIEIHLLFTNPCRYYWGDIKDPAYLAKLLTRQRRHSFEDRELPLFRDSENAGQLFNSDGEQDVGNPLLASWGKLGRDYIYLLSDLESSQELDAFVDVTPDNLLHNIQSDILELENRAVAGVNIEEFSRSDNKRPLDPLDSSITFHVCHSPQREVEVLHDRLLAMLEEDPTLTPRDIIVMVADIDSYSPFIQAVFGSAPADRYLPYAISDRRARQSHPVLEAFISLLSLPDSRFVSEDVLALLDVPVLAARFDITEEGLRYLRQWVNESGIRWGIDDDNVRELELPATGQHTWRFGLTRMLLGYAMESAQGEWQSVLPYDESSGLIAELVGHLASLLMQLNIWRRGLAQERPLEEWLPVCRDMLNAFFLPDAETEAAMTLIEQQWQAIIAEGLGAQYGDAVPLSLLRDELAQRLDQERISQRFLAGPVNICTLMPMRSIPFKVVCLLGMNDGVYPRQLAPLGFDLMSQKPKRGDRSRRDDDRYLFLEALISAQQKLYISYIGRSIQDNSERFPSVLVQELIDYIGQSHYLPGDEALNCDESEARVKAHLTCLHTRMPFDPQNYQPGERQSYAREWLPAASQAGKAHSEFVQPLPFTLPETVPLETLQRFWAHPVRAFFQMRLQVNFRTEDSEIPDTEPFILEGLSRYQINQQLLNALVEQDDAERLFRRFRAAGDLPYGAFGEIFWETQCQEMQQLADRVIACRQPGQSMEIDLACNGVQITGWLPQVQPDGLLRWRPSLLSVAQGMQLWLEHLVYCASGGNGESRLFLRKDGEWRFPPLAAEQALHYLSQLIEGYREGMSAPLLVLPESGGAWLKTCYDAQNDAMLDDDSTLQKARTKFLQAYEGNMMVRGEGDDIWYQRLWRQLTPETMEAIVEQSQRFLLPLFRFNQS
T1 sequence (P08394 whole entry): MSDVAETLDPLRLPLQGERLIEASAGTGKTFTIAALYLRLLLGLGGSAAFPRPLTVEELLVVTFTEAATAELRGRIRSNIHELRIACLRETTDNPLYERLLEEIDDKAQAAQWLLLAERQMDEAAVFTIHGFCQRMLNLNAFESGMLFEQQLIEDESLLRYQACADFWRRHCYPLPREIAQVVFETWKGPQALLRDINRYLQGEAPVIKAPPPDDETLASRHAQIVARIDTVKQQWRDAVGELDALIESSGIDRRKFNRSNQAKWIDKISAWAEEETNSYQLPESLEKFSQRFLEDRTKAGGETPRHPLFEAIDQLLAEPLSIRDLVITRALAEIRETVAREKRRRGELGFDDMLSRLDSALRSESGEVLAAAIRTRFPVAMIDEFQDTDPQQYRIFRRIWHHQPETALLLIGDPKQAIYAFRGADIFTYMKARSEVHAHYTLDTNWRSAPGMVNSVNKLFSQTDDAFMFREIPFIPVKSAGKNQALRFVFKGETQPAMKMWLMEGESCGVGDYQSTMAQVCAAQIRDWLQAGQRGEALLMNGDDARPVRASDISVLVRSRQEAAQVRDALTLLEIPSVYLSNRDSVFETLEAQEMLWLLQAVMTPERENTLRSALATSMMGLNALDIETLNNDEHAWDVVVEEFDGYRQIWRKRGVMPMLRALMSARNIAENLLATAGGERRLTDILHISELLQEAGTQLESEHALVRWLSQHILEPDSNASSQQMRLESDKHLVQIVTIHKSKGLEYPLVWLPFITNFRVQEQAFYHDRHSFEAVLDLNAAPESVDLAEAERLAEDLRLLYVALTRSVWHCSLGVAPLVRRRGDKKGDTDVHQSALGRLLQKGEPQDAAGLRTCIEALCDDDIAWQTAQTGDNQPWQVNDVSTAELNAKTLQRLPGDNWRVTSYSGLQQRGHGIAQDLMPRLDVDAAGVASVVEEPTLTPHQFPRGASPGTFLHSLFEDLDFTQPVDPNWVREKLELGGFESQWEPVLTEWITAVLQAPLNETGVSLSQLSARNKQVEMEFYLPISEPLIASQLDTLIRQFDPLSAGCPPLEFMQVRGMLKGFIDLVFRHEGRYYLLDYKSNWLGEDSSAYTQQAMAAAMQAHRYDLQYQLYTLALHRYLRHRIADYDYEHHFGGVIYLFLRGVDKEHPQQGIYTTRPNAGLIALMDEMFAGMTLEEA

[2] = molecular target: Peroxisome proliferator-activated receptor gamma/Nuclear receptor corepressor 2 (Homo sapiens, UniProt P37231+Q9Y618); format: functional
Chain of Peroxisome proliferator-activated receptor gamma/Nuclear receptor corepressor 2 (P37231 whole entry): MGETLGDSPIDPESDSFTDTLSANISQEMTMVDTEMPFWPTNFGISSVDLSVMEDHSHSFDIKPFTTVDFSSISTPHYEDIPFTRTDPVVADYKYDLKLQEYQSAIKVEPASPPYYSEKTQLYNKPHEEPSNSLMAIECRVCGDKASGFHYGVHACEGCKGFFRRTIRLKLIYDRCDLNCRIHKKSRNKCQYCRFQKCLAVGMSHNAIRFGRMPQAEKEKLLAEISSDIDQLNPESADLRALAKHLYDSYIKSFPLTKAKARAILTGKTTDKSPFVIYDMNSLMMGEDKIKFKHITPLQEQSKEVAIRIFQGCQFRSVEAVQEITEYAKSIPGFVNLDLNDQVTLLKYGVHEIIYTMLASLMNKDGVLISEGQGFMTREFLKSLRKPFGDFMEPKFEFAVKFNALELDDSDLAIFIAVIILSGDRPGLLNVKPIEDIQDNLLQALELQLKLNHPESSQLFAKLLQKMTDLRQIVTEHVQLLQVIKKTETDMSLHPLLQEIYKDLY
Chain of Peroxisome proliferator-activated receptor gamma/Nuclear receptor corepressor 2 (Q9Y618 whole entry): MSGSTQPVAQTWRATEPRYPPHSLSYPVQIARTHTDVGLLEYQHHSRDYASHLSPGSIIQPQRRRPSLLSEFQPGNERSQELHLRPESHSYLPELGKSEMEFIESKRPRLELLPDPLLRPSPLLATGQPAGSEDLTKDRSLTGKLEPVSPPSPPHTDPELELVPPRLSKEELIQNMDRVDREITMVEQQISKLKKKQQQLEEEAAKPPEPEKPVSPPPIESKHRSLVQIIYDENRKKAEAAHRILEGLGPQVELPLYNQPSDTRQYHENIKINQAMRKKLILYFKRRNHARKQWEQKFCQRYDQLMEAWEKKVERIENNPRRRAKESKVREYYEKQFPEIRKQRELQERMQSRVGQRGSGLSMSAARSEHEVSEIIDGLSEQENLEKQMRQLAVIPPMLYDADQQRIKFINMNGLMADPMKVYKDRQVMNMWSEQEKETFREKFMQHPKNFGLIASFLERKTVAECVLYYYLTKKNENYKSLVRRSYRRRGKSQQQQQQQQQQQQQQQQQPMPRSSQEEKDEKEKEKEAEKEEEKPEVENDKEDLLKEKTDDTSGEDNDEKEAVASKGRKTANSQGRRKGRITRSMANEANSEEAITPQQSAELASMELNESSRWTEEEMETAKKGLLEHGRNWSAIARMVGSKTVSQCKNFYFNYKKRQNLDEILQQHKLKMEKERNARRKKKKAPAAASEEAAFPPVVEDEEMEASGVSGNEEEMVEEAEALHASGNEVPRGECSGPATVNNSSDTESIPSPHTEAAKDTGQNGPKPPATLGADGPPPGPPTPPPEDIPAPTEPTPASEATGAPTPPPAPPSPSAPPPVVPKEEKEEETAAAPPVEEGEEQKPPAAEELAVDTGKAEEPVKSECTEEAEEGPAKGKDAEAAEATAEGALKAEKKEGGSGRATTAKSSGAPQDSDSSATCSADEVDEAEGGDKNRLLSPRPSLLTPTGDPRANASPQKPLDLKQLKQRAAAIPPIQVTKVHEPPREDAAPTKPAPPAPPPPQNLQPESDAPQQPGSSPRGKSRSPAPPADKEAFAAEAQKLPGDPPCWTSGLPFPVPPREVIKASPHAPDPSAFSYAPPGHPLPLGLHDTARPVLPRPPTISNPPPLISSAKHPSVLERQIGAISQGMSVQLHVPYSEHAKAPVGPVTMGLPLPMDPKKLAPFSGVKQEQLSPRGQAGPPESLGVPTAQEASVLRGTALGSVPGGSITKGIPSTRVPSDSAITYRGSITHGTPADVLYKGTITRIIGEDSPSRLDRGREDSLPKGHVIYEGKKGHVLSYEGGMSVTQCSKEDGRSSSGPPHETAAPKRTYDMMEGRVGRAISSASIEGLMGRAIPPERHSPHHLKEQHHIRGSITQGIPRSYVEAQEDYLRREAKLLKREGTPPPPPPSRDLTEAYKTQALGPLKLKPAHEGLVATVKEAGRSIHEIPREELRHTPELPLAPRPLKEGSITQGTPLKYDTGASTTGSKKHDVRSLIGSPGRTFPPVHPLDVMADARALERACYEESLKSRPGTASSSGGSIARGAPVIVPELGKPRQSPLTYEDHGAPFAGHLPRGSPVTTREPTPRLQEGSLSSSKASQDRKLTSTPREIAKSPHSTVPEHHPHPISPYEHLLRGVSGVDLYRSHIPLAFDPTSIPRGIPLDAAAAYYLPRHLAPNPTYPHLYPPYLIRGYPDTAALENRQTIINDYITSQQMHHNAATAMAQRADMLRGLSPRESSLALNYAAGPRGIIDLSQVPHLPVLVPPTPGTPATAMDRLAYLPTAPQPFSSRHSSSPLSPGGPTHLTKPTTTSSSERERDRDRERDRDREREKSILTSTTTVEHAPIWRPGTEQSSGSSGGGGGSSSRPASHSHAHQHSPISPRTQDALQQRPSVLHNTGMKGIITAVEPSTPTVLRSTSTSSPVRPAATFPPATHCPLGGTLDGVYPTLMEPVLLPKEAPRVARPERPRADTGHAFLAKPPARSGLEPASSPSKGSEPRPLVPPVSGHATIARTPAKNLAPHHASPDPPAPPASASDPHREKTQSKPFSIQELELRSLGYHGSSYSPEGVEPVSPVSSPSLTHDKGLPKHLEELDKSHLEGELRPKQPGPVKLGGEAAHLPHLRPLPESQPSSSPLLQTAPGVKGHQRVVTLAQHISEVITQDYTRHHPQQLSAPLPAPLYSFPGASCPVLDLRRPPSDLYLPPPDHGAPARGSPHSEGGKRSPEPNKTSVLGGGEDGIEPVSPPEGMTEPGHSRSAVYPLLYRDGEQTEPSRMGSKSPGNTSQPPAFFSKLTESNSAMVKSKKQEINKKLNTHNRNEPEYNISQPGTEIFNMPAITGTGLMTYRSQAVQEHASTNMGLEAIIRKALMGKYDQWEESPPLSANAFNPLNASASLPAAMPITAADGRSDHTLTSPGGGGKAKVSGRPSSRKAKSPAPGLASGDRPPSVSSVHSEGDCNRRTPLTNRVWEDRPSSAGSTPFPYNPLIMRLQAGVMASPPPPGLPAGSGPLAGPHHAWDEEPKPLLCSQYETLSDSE

For `CCC(=O)NC(c1ccc(OC)cc1)c1cc(Cl)c2cccnc2c1O` (configuration not stated), the IC50 [1] was > 119 µM (inactive).
`Cn1nc(-c2ccccn2)nc2c(=O)n(C)c(=O)nc1-2` was tested, and the IC50 [2] was 4.69 µM (active).
